Laboratory results as given in paper PMC5271370, “A High-Content Assay Enables the Automated Screening and Identification of Small Molecules with Specific ALDH1A1-Inhibitory Activity” (PLoS ONE, 2017).

molecular target: T1, Human ALDH1A3 (Homo sapiens, UniProt P47895); assay: 1,536-well enzymatic assay (NADH fluorescence), ALDH1A3; type: biochemical; conditions: not given
T1 construct: purchased ThermoFisher 11636H07E50
T1 sequence (P47895 1-512): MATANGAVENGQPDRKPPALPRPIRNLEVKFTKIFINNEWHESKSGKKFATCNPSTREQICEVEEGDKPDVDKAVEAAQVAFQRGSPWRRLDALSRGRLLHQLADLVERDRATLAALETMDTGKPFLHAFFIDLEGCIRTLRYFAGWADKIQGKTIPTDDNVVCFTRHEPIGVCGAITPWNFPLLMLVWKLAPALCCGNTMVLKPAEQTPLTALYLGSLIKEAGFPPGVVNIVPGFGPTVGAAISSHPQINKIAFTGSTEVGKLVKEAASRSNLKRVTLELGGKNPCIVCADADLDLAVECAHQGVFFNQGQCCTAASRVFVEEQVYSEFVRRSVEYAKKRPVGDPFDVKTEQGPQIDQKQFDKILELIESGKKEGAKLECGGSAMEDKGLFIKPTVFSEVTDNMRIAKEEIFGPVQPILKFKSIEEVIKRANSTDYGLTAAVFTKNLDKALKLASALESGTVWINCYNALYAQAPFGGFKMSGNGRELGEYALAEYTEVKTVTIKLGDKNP
Description: To validate our optimized assay, we assembled a set of 20 previously reported ALDH inhibitors, with varying degrees of target specificity (Table 1 and S4 Fig). […] Briefly, the assay measures the dehydrogenase activity of recombinant human ALDH1A1, ALDH1A2, ALDH1A3, ALDH2 or ALDH3A1 using NAD(P)^+ and either propionaldehyde or benzaldehyde as substrates. An orthogonal resorufin-based assay format was also run with isolated ALDH1A1 to rule out potential false positives due to intrinsic compound fluorescence.
Human ALDH1A1 and ALDH3A1 were expressed and purified as described elsewhere. Human ALDH2 was purchased from Abcam (ab87415). Human ALDH1A2 and ALDH1A3 were purchased from MyBioSource (MBS1005929; San Diego, CA) and ThermoFisher (11636H07E50), respectively. The inhibitory activity of compounds against ALDHs was measured according to protocols described previously. Briefly, 3 μL of enzyme (final concentrations of 20 nM for ALDH1A1, 50 nM for ALDH1A2, 50 nM for ALDH1A3, 75 nM for ALDH2 and 5 nM for ALDH3A1) in assay buffer (100 mM HEPES pH 7.5 with 0.01% Tween 20) were dispensed into a 1,536-well solid-bottom black plate (Greiner Bio One, Monroe, NC). […] Samples were incubated (room temperature, protected from light) for 15 minutes followed by a 1 μL substrate addition of NAD^+ and Propionaldehyde (final concentrations of 1 mM and 80 μM, respectively) for ALDH1A1, 1A2, 1A3, and ALDH2 or NADP^+ and benzaldehyde (final concentrations of 1 mM and 200 μM, respectively) for ALDH3A1. Plates were centrifuged at 1,000 rpm for 15 seconds, then read in kinetic mode on a ViewLux High-throughput CCD imager (PerkinElmer, Waltham, MA) equipped with standard UV fluorescence optics (340 nm excitation, 450 nm emission) for 5 (ALDH1A1, ALDH1A2, ALDH2, ALDH3A1) or 30 (ALDH1A3) minutes. The change in fluorescence intensity over the 5- or 30-minute reaction period was normalized against no-inhibitor and no-enzyme controls and the resulting percent inhibition data were fitted to a 4-parameter Hill equation. Bay-11 7085 was used as intraplate control. To account for artifacts due to intrinsic compound fluorescence in the above spectrum, compounds were also tested in an orthogonal resorufin assay format with optics of excitation 525 nm/emission 598 nm as described before. The same parameters as the NADH assay were used for the resorufin assay, with the addition of (final) 133 μg/mL diaphorase and 37 μM resazurin to the assay solution. Same controls were used in both formats.

Compound | IC50 [µM]
O=c1c(-c2ccc(O)cc2)coc2cc(O[C@@H]3O[C@H](CO)[C@@H](O)[C@H](O)[C@H]3O)ccc12 [Daidzin] | 24.1
Cc1cc2c(C(C)C)c(O)c(O)c(C=O)c2c(O)c1-c1c(C)cc2c(C(C)C)c(O)c(O)c(C=O)c2c1O [Gossypol] | 8.55

same assay, conditions: hits of dual cell-based screen (Table 2); read-out: Biochemical IC50 ALDH1A3

Compound | IC50 [µM]
CC(C)N(C(=O)CCl)c1ccccc1 [Propachlor] | 5.62
C[S+](=O)([O-])c1ccc(Cn2c3c(c4cc(F)cc(F)c42)CCCC3CC(=O)O)cc1 [L-670596] | 35.5

same assay, conditions: validation set; 50 nM enzyme, NAD+ and propionaldehyde; read-out: Biochemical IC50 ALDH1A3

IC50 [µM] | Compound
17 | C#CCN(C)Cc1ccccc1 [Pargyline]
27 | Nc1ccccc1C(=O)CC(N)C(=O)O (stereo not shown) [Kynurenine]
7.62 | O=C1Nc2ccccc2C1=O [indoline-2,3-dione]
0.68 | CCN(CC)C(=S)SSC(=S)N(CC)CC [Disulfiram]

Further lines, the compound ahead of its results:

Compound | IC50 [µM]
CC(C)=CCCC(C)=CC=O (mixture of isomers) [Citral] | 2.7
COc1ccc(C(=O)CCN(C)C)cc1F [Aldi-2] | 0.24
CC(C)(C)c1ccc(S(=O)(=O)/C=C/C#N)cc1 [Bay-11-7085] | 0.68
CCOc1ccc(NCC(=O)Nc2ccc(Cl)cc2C)cc1 [CID 725345] | 3.82
COc1cccc2cc(C(=O)CC3(O)C(=O)N(Cc4ccccc4)c4ccccc43)c(=O)oc12 (stereo not shown) [CID 2929292] | 24.1
CVT-10216 | 27
CCN(CC)c1ccc(C=O)cc1 [DEAB, 4-N,N-diethylaminobenzaldehyde] | 24.1
Cc1nc2ccccc2n1S(=O)(=O)c1ccc(F)cc1 [CB7] | 12.1
